From patent US12370143B2, “Compound or salt thereof and lipid particles” (FUJIFILM Corporation, priority 2018, dated 2025) come the findings set out here.

A short description of data set [1]: Encapsulation rate of siRNA in nucleic acid lipid particles (Luc2-siRNA). In kind it is physicochemical. The following applies: compound/DSPC/cholesterol/DMG-PEG2000 50/10/38.5/1.5. On the procedure: (§1) The compounds described in Table 2, L-α-distearoylphosphatidylcholine (trade name: COATSOME® MC-8080; NOF corporation), cholesterol (trade name: Choesterol HP; NIPPON FINE CHEMICAL CO., LTD.), and 1,2-dimyristoyl-rac-glycero-3-(methylpolyoxyethylene 2000) (hereinafter, called DMG-PEG2000) (trade name: SUNBRIGHT® GM-020; NOF corporation) were dissolved in ethanol at a molar ratio of 50/10/38.5/1.5 such that the total lipid concentration became 20 mmol/L, thereby obtaining an oil phase.
(§2) An aqueous nucleic acid solution obtained by dissolving 5 mg of Luc2-siRNA having the sequence described in Biomacromolecules (2013) 14, p. 3905 in 1 mL of sterile water was diluted with 10 mmol/L acetate buffer having a pH 4 such that the nucleic acid concentration became 19.7 μmol/L, thereby obtaining a water phase. Then, the water phase and the oil phase were mixed together by a micromixer (see JP5288254B) using a syringe pump such that the volume ratio of water phase:oil phase became 3:1 (final ratio of siRNA/lipid=339 (mol/mol)), and the mixed solution was diluted 2× with PBS, thereby obtaining a dispersion liquid of nucleic acid lipid particles. The dispersion liquid was dialyzed (Slide-A-Lyzer G2, MWCO: 10 kD, Thermo Fisher Scientific) using a phosphate buffered saline such that ethanol was removed, thereby obtaining nucleic acid lipid particles.
A 3 mol/L aqueous sodium acetate solution (30 μL) and 9 μL of glycogen were added to 60 μL of the lipid particles retaining nucleic acids, and then 1.5 mL of ethanol was added thereto such that only the nucleic acids were precipitated while the lipid was dissolved. Then, the supernatant was removed by centrifugation. After the precipitates were air-dried for 15 minutes or longer, water was added thereto such that the precipitates were redissolved, and the concentration thereof was measured using Nanodrop NF1000 (Thermo Fisher Scientific), thereby quantifying the total nucleic acid concentration.
The nucleic acid concentration was quantified using a Quant-iT RiboGreen RNA Assay Kit (Thermo Fisher Scientific) according to the protocol. First, a 20×TE buffer included in the above kit was diluted with water, thereby obtaining a 1×TE buffer. TE represents Tris/EDTA (ethylenediaminetetraacetic acid). In order to quantify only the nucleic acid in the outer water phase, the dispersion liquid of lipid particles retaining nucleic acids was diluted 10,000× with the 1×TE buffer.
The 10,000× diluted dispersion liquid of lipid particles (100 μL) was put in a 96-well plate, then 100 μL of a RiboGreen reagent (reagent included in the Quanti-iT Ribogreen RNA Assay Kit described above) diluted 2000× with the 1×TE buffer was added to a sample, and fluorescence (excitation wavelength: 485 nm, fluorescence wavelength: 535 nm) was measured using a plate reader Infinit EF200 (TECAN), thereby quantifying the nucleic acid concentration in the outer water phase.
By using the total nucleic acid concentration obtained through the above steps and the quantified nucleic acid concentration in the outer water phase, the nucleic acid encapsulation rate of the nucleic acid lipid particles was calculated according to the following Equation. Nucleic acid encapsulation rate (%)=(total nucleic acid concentration−nucleic acid concentration in outer water phase)/total nucleic acid concentration×100 The results are shown in Table 2.

Data set [2] can be described thus: Particle size of nucleic acid lipid particles (Luc2-siRNA). The following applies: compound/DSPC/cholesterol/DMG-PEG2000 50/10/38.5/1.5. In kind it is physicochemical. On the procedure: By using the dispersion liquid of lipid particles as it was, the particle size of the lipid particles was measured using a zeta potential/particle size measurement system ELS-Z2 (Otsuka Electronics Co., Ltd.).
as §1, §2
The particle size of the nucleic acid lipid particles was measured by the same method as that in <Preparation of lipid particles>.

On to `CCCCC/C=C\C/C=C\CCCCCCCCN(CCCCCCCC/C=C\C/C=C\CCCCC)C(=O)OCCCN(C)CCN(C)C` [Example 2, 3-((2-(Dimethylamino)ethyl)(methyl)amino)propyl di((9Z,12Z)-octadeca-9,12-dien-1-yl)carbamate], for which the “Nucleic acid encapsulation rate” value in data set [1] is 78%. For the same molecule, in data set [2], the “Particle size (nm)” value was 80.5 nm.
As for `CCCCC/C=C\C/C=C\CCCCCCCCN(CCCCCCCC/C=C\C/C=C\CCCCC)C(=O)OCCN(C)CCN1CCOCC1` [Example 5, 2-(Methyl(2-morpholinoethyl)amino)ethyl di((9Z,12Z)-octadeca-9,12-diene-1-yl)carbamate], the “Nucleic acid encapsulation rate” value in data set [1] is given as 78%. Besides, the “Particle size (nm)” value in data set [2] came out at 73.8 nm.
In the same order, the values of `CCCCC/C=C\C/C=C\CCCCCCCCN(CCCCCCCC/C=C\C/C=C\CCCCC)C(=O)OCCN(CC)CCN1CCOCC1` [Example 6, 2-(Ethyl(2-morpholinoethyl)amino)ethyl di((9Z,12Z)-octadeca-9,12-dien-1-yl)carbamate] are 78% and 113.5 nm.
On to `CCCCC/C=C\C/C=C\CCCCCCCCN(CCCCCCCC/C=C\C/C=C\CCCCC)C(=O)OCCN(C)CCCN(C)C` [Example 8, 2-((3-(Dimethylamino)propyl)(methyl)amino)ethyl di((9Z,12Z)-octadeca-9,12-dien-1-yl)carbamate], for which the “Nucleic acid encapsulation rate” value in data set [1] was 83%. The “Particle size (nm)” value in data set [2] amounted to 81.4 nm.
In the same order, the values of `CCCCCC/C=C\COC(=O)CCCCCCCN(CCCCCCCC(=O)OC/C=C\CCCCCC)C(=O)OCCN(C)CCN(C)C` [Example 11, (Z)-non-2-en-1-yl 2,5-dimethyl-10-(8-(((Z)-non-2-en-1-yl)oxy)-8-oxooctyl)-9-oxo-8-oxa-2,5,10-triazaoctadecan-18-oate] are 84% and 217.2 nm.
On to `CCCCCC/C=C/COC(=O)CCCCCCCN(CCCCCCCC(=O)OC/C=C/CCCCCC)C(=O)OCCN(C)CCN(C)C` [Example 12, (E)-non-2-en-1-yl 2,5-dimethyl-10-(8-(((E)-non-2-en-1-yl)oxy)-8-oxooctyl)-9-oxo-8-oxa-2,5,10-triazaoctadecan-18-oate], for which, in data set [1], the “Nucleic acid encapsulation rate” value stood at 100%. In addition, the “Particle size (nm)” value in data set [2] is recorded as 254.2 nm.
Take `CCCCCCCCCOC(=O)CCCCCCCN(CCCCCCCC(=O)OCCCCCCCCC)C(=O)OCCN(C)CCN(C)C` [Example 13, Nonyl 2,5-dimethyl-10-(8-(nonyloxy)-8-oxooctyl)-9-oxo-8-oxa-2,5,10-triazaoctadecan-18-oate]: the “Nucleic acid encapsulation rate” value in data set [1] is 88%. Moreover, the “Particle size (nm)” value in data set [2] came out at 140.3 nm.
For `CCCCCC/C=C\COC(=O)OCCCCCCN(CCCCCCOC(=O)OC/C=C\CCCCCC)C(=O)OCCN(C)CCN(C)C` [Example 14, 2-((2-(Dimethylamino)ethyl)(methyl)amino)ethyl bis(6-(((((Z)-non-2-en-1-yl)oxy)carbonyl)oxy)hexyl)carbamate], the “Nucleic acid encapsulation rate” value in data set [1] came out at 76%. The “Particle size (nm)” value in data set [2] was 219.0 nm.
With `CCCCCCCC/C=C\CCCCCCCCN(CCCCCCCCC)C(=O)OCCN(C)CCN(C)C` [Example 15, 2-((2-(Dimethylamino)ethyl)(methyl)amino)ethyl(Z)-nonyl(octadec-9-en-1-yl)carbamate], the “Nucleic acid encapsulation rate” value in data set [1] stood at 83%. For the same molecule, the “Particle size (nm)” value in data set [2] is 122.8 nm.
`CCCCC/C=C\C/C=C\CCCCCCCCN(CCCCCCCCC)C(=O)OCCN(C)CCN(C)C` [Example 16, 2-((2-(Dimethylamino)ethyl)(methyl)amino)ethyl nonyl((9Z,12Z)-octadeca-9,12-dien-1-yl)carbamate]: in data set [1], the “Nucleic acid encapsulation rate” value is listed as 90%. For the same molecule, the “Particle size (nm)” value in data set [2] is 113.4 nm.
In the case of `CCCCC/C=C\C/C=C\CCCCCCCCC(CCCCCCCC/C=C\C/C=C\CCCCC)OC(=O)OCCN(C)CCN1CCOCC1` [Example 21, 2-(Methyl(2-morpholinoethyl)amino)ethyl((6Z,9Z,28Z,31Z)-heptatriaconta-6,9,28,31-tetraen-19-yl)carbonate], the “Nucleic acid encapsulation rate” value in data set [1] is 78%. In data set [2], the “Particle size (nm)” value came to 78.0 nm.
Take `CCCCC/C=C\C/C=C\CCCCCCCCC(CCCCCCCC/C=C\C/C=C\CCCCC)OC(=O)OCCN(CC)CCN1CCOCC1` [Example 22, 2-(Ethyl(2-morpholinoethyl)amino)ethyl((6Z,9Z,28Z,31Z)-heptatriaconta-6,9,28,31-tetraen-19-yl)carbonate]: the “Nucleic acid encapsulation rate” value in data set [1] was found to be 69%. Also, in data set [2], the “Particle size (nm)” value is 69.3 nm.
Regarding `CCCCC/C=C\C/C=C\CCCCCCCCC(CCCCCCCC/C=C\C/C=C\CCCCC)OC(=O)OCCN(CCO)CCN(C)C` [Example 28], the “Nucleic acid encapsulation rate” value in data set [1] worked out at 75%. Moreover, the “Particle size (nm)” value in data set [2] turned out to be 76.4 nm.
In the same order, the values of `CCCCC/C=C\C/C=C\CCCCCCCCC(CCCCCCCC/C=C\C/C=C\CCCCC)OC(=O)OCCN(CCN(C)C)C1CCCCC1` [Example 32, 2-(Cyclohexyl(2-(dimethylamino)ethyl)amino)ethyl((6Z,9Z,28Z,31Z)-heptatriaconta-6,9,28,31-tetraen-19-yl)carbonate] are 78% and 71.6 nm.
As for `CCCCC/C=C\C/C=C\CCCCCCCC(=O)OCC(COC(=O)CCCCCCC/C=C\C/C=C\CCCCC)OC(=O)OCCN(CC)CCN(C)C` [Example 35, 2-(((2-((2-(Dimethylamino)ethyl)(ethyl)amino)ethoxy)carbonyl)oxy)propane-1,3-diyl(9Z,9′Z,12Z,12′Z)-bis(octadeca-9,12-dienoate)], the “Nucleic acid encapsulation rate” value in data set [1] was found to be 87%. In addition, in data set [2], the “Particle size (nm)” value was found to be 80.1 nm.
As to `CCCCC/C=C\C/C=C\CCCCCCCCC(CCCCCCCC/C=C\C/C=C\CCCCC)OC(=O)OCCN(CCCC)CCN(CC)CC` [Example 39, 2-(Butyl(2-(diethylamino)ethyl)amino)ethyl((6Z,9Z,28Z,31Z)-heptatriaconta-6,9,28,31-tetraen-19-yl)carbonate], the “Nucleic acid encapsulation rate” value in data set [1] is 88%. Also, the “Particle size (nm)” value in data set [2] amounted to 78.3 nm.
With `CCCCC/C=C\C/C=C\CCCCCCCCC(CCCCCCCC/C=C\C/C=C\CCCCC)OC(=O)OCCN(CCC)CCN(CC)CC` [Example 44, 2-((2-(Diethylamino)ethyl)(propyl)amino)ethyl((6Z,9Z,28Z,31Z)-heptatriaconta-6,9,28,31-tetraen-19-yl)carbonate], the “Nucleic acid encapsulation rate” value in data set [1] worked out at 59%. Also, the “Particle size (nm)” value in data set [2] is reported as 69.4 nm.
As for `CCCCC/C=C\C/C=C\CCCCCCCCC(CCCCCCCC/C=C\C/C=C\CCCCC)OC(=O)OCCN(CC)CCN(CCC)CCC` [Example 49, 2-((2-(Dipropylamino)ethyl)(ethyl)amino)ethyl((6Z,9Z,28Z,31Z)-heptatriaconta-6,9,28,31-tetraen-19-yl)carbonate], the “Nucleic acid encapsulation rate” value in data set [1] was 80%. The “Particle size (nm)” value in data set [2] was 74.3 nm.
Turning to `CCCCCCCCC1CC1CCCCCCCC(=O)OCCCCCCC(CCCCCCOC(=O)CCCCCCCC1CC1CCCCCCCC)OC(=O)OCCN(CC)CCN(CC)CC` (centres unmarked) [Example 57], the “Nucleic acid encapsulation rate” value in data set [1] is 79%. In addition, the “Particle size (nm)” value in data set [2] was 77.9 nm.
